Source: ChEMBL document CHEMBL2429768, “Eco-friendly synthesis and antimicrobial activities of substituted-5-(1H-indol-3-yl)methylene)-2,2-dimethyl-1,3-dioxane-4,6-dione derivatives” (2013)
Converted amounts (≈) assume the structure as drawn.

Legend:
Type in all cases: functional
Aspergillus niger [1] = test: Antifungal activity against Aspergillus niger at 50 ug/ml after 72 hrs by agar well diffusion method; details: read-out: DIZ
Fusarium oxysporum [2] = test: Antifungal activity against Fusarium oxysporum at 500 ug/ml after 72 hrs by agar well diffusion method; details: read-out: DIZ
Fusarium oxysporum [3] = test: Antifungal activity against Fusarium oxysporum at 300 ug/ml after 72 hrs by agar well diffusion method; details: read-out: DIZ
Fusarium oxysporum [4] = test: Antifungal activity against Fusarium oxysporum at 200 ug/ml after 72 hrs by agar well diffusion method; details: read-out: DIZ
Fusarium oxysporum [5] = test: Antifungal activity against Fusarium oxysporum at 100 ug/ml after 72 hrs by agar well diffusion method; details: read-out: DIZ
Fusarium oxysporum [6] = test: Antifungal activity against Fusarium oxysporum at 50 ug/ml after 72 hrs by agar well diffusion method; details: read-out: DIZ
Rhizoctonia solani [7] = test: Antifungal activity against Rhizoctonia solani at 500 ug/ml after 72 hrs by agar well diffusion method; details: read-out: DIZ
Rhizoctonia solani [8] = test: Antifungal activity against Rhizoctonia solani at 300 ug/ml after 72 hrs by agar well diffusion method; details: read-out: DIZ
Rhizoctonia solani [9] = test: Antifungal activity against Rhizoctonia solani at 200 ug/ml after 72 hrs by agar well diffusion method; details: read-out: DIZ
Rhizoctonia solani [10] = test: Antifungal activity against Rhizoctonia solani at 100 ug/ml after 72 hrs by agar well diffusion method; details: read-out: DIZ
Rhizoctonia solani [11] = test: Antifungal activity against Rhizoctonia solani at 50 ug/ml after 72 hrs by agar well diffusion method; details: read-out: DIZ
Bacillus subtilis [12] = test: Antibacterial activity against Bacillus subtilis at 500 ug/ml after 24 hrs by agar well diffusion method; details: read-out: DIZ
Bacillus subtilis [13] = test: Antibacterial activity against Bacillus subtilis at 300 ug/ml after 24 hrs by agar well diffusion method; details: read-out: DIZ
Bacillus subtilis [14] = test: Antibacterial activity against Bacillus subtilis at 200 ug/ml after 24 hrs by agar well diffusion method; details: read-out: DIZ
Bacillus subtilis [15] = test: Antibacterial activity against Bacillus subtilis at 100 ug/ml after 24 hrs by agar well diffusion method; details: read-out: DIZ
Bacillus subtilis [16] = test: Antibacterial activity against Bacillus subtilis at 50 ug/ml after 24 hrs by agar well diffusion method; details: read-out: DIZ
Staphylococcus aureus [17] = test: Antibacterial activity against Staphylococcus aureus ATCC 6538 at 500 ug/ml after 24 hrs by agar well diffusion method; details: ATCC 6538, 24 h, read-out: DIZ
Staphylococcus aureus [18] = test: Antibacterial activity against Staphylococcus aureus ATCC 6538 at 300 ug/ml after 24 hrs by agar well diffusion method; details: ATCC 6538, 24 h, read-out: DIZ
Staphylococcus aureus [19] = test: Antibacterial activity against Staphylococcus aureus ATCC 6538 at 200 ug/ml after 24 hrs by agar well diffusion method; details: ATCC 6538, 24 h, read-out: DIZ
Staphylococcus aureus [20] = test: Antibacterial activity against Staphylococcus aureus ATCC 6538 at 100 ug/ml after 24 hrs by agar well diffusion method; details: ATCC 6538, 24 h, read-out: DIZ
Escherichia coli [21] = test: Antibacterial activity against Escherichia coli ATCC 8739 at 300 ug/ml after 24 hrs by agar well diffusion method; details: ATCC 8739, 24 h, read-out: DIZ
Escherichia coli [22] = test: Antibacterial activity against Escherichia coli ATCC 8739 at 200 ug/ml after 24 hrs by agar well diffusion method; details: ATCC 8739, 24 h, read-out: DIZ
Escherichia coli [23] = test: Antibacterial activity against Escherichia coli ATCC 8739 at 100 ug/ml after 24 hrs by agar well diffusion method; details: ATCC 8739, 24 h, read-out: DIZ
Escherichia coli [24] = test: Antibacterial activity against Escherichia coli ATCC 8739 at 50 ug/ml after 24 hrs by agar well diffusion method; details: ATCC 8739, 24 h, read-out: DIZ
Klebsiella pneumoniae [25] = test: Antibacterial activity against Klebsiella pneumoniae at 500 ug/ml after 24 hrs by agar well diffusion method; details: read-out: DIZ
Klebsiella pneumoniae [26] = test: Antibacterial activity against Klebsiella pneumoniae at 300 ug/ml after 24 hrs by agar well diffusion method; details: read-out: DIZ
Klebsiella pneumoniae [27] = test: Antibacterial activity against Klebsiella pneumoniae at 200 ug/ml after 24 hrs by agar well diffusion method; details: read-out: DIZ
Klebsiella pneumoniae [28] = test: Antibacterial activity against Klebsiella pneumoniae at 50 ug/ml after 24 hrs by agar well diffusion method; details: read-out: DIZ
Escherichia coli [29] = test: Antibacterial activity against Escherichia coli ATCC 8739 at 500 ug/ml after 24 hrs by agar well diffusion method; details: ATCC 8739, 24 h, read-out: DIZ
Klebsiella pneumoniae [30] = test: Antibacterial activity against Klebsiella pneumoniae at 100 ug/ml after 24 hrs by agar well diffusion method; details: read-out: DIZ
Staphylococcus aureus [31] = test: Antibacterial activity against Staphylococcus aureus ATCC 6538 at 50 ug/ml after 24 hrs by agar well diffusion method; details: ATCC 6538, 24 h, read-out: DIZ
Aspergillus flavus [32] = test: Antifungal activity against Aspergillus flavus at 50 ug/ml after 72 hrs by agar well diffusion method; details: read-out: DIZ
Aspergillus flavus [33] = test: Antifungal activity against Aspergillus flavus at 100 ug/ml after 72 hrs by agar well diffusion method; details: read-out: DIZ
Aspergillus flavus [34] = test: Antifungal activity against Aspergillus flavus after 72 hrs by agar well diffusion method
Aspergillus niger [35] = test: Antifungal activity against Aspergillus niger after 72 hrs by agar well diffusion method
Fusarium oxysporum [36] = test: Antifungal activity against Fusarium oxysporum after 72 hrs by agar well diffusion method
Rhizoctonia solani [37] = test: Antifungal activity against Rhizoctonia solani after 72 hrs by agar well diffusion method
Bacillus subtilis [38] = test: Antibacterial activity against Bacillus subtilis after 24 hrs by agar well diffusion method
Staphylococcus aureus [39] = test: Antibacterial activity against Staphylococcus aureus ATCC 6538 after 24 hrs by agar well diffusion method; details: ATCC 6538, 24 h
Escherichia coli [40] = test: Antibacterial activity against Escherichia coli ATCC 8739 after 24 hrs by agar well diffusion method; details: ATCC 8739, 24 h
Klebsiella pneumoniae [41] = test: Antibacterial activity against Klebsiella pneumoniae after 24 hrs by agar well diffusion method
Aspergillus flavus [42] = test: Antifungal activity against Aspergillus flavus at 500 ug/ml after 72 hrs by agar well diffusion method; details: read-out: DIZ
Aspergillus flavus [43] = test: Antifungal activity against Aspergillus flavus at 300 ug/ml after 72 hrs by agar well diffusion method; details: read-out: DIZ
Aspergillus flavus [44] = test: Antifungal activity against Aspergillus flavus at 200 ug/ml after 72 hrs by agar well diffusion method; details: read-out: DIZ
Aspergillus niger [45] = test: Antifungal activity against Aspergillus niger at 500 ug/ml after 72 hrs by agar well diffusion method; details: read-out: DIZ
Aspergillus niger [46] = test: Antifungal activity against Aspergillus niger at 300 ug/ml after 72 hrs by agar well diffusion method; details: read-out: DIZ
Aspergillus niger [47] = test: Antifungal activity against Aspergillus niger at 200 ug/ml after 72 hrs by agar well diffusion method; details: read-out: DIZ
Aspergillus niger [48] = test: Antifungal activity against Aspergillus niger at 100 ug/ml after 72 hrs by agar well diffusion method; details: read-out: DIZ

`Cn1cc(C=C2C(=O)OC(C)(C)OC2=O)c2ccccc21` was tested. Which zone of inhibition at 50 µg/mL (Aspergillus niger [1]) did it give?
Its zone of inhibition at 50 µg/mL is 6 mm.

What about the zone of inhibition at 500 µg/mL (Fusarium oxysporum [2]) of the same molecule?
Its zone of inhibition at 500 µg/mL is 29 mm.

And the zone of inhibition at 300 µg/mL (Fusarium oxysporum [3])?
The zone of inhibition at 300 µg/mL was 21 mm.

What about the zone of inhibition at 200 µg/mL (Fusarium oxysporum [4]) of the same molecule?
Its zone of inhibition at 200 µg/mL is 16 mm.

What about the zone of inhibition at 100 µg/mL (Fusarium oxysporum [5]) of the same molecule?
The zone of inhibition at 100 µg/mL was 12 mm.

And the zone of inhibition at 50 µg/mL (Fusarium oxysporum [6])?
Its zone of inhibition at 50 µg/mL is 7 mm.

And the zone of inhibition at 500 µg/mL (Rhizoctonia solani [7])?
Its zone of inhibition at 500 µg/mL is 29 mm.

What about the zone of inhibition at 300 µg/mL (Rhizoctonia solani [8]) of the same molecule?
Its zone of inhibition at 300 µg/mL is 21 mm.

And the zone of inhibition at 200 µg/mL (Rhizoctonia solani [9])?
The zone of inhibition at 200 µg/mL was 16 mm.

What about the zone of inhibition at 100 µg/mL (Rhizoctonia solani [10]) of the same molecule?
Its zone of inhibition at 100 µg/mL is 12 mm.

What about the zone of inhibition at 50 µg/mL (Rhizoctonia solani [11]) of the same molecule?
The zone of inhibition at 50 µg/mL was 7 mm.

And the zone of inhibition at 500 µg/mL (Bacillus subtilis [12])?
Its zone of inhibition at 500 µg/mL is 23 mm.

What about the zone of inhibition at 300 µg/mL (Bacillus subtilis [13]) of the same molecule?
Its zone of inhibition at 300 µg/mL is 15 mm.

And the zone of inhibition at 200 µg/mL (Bacillus subtilis [14])?
The zone of inhibition at 200 µg/mL was 12 mm.

And the zone of inhibition at 100 µg/mL (Bacillus subtilis [15])?
Its zone of inhibition at 100 µg/mL is 9 mm.

And the zone of inhibition at 50 µg/mL (Bacillus subtilis [16])?
The zone of inhibition at 50 µg/mL was 4 mm.

And the zone of inhibition at 500 µg/mL (Staphylococcus aureus [17])?
The zone of inhibition at 500 µg/mL was 25 mm.

And the zone of inhibition at 300 µg/mL (Staphylococcus aureus [18])?
The zone of inhibition at 300 µg/mL was 18 mm.

What about the zone of inhibition at 200 µg/mL (Staphylococcus aureus [19]) of the same molecule?
Its zone of inhibition at 200 µg/mL is 14 mm.

And the zone of inhibition at 100 µg/mL (Staphylococcus aureus [20])?
Its zone of inhibition at 100 µg/mL is 10 mm.

And the zone of inhibition at 300 µg/mL (Escherichia coli [21])?
Its zone of inhibition at 300 µg/mL is 20 mm.

And the zone of inhibition at 200 µg/mL (Escherichia coli [22])?
The zone of inhibition at 200 µg/mL was 16 mm.

What about the zone of inhibition at 100 µg/mL (Escherichia coli [23]) of the same molecule?
The zone of inhibition at 100 µg/mL was 13 mm.

And the zone of inhibition at 50 µg/mL (Escherichia coli [24])?
The zone of inhibition at 50 µg/mL was 8 mm.

What about the zone of inhibition at 500 µg/mL (Klebsiella pneumoniae [25]) of the same molecule?
Its zone of inhibition at 500 µg/mL is 31 mm.

And the zone of inhibition at 300 µg/mL (Klebsiella pneumoniae [26])?
Its zone of inhibition at 300 µg/mL is 23 mm.

And the zone of inhibition at 200 µg/mL (Klebsiella pneumoniae [27])?
The zone of inhibition at 200 µg/mL was 18 mm.

What about the zone of inhibition at 50 µg/mL (Klebsiella pneumoniae [28]) of the same molecule?
Its zone of inhibition at 50 µg/mL is 9 mm.

And the zone of inhibition at 500 µg/mL (Escherichia coli [29])?
Its zone of inhibition at 500 µg/mL is 30 mm.

And the zone of inhibition at 100 µg/mL (Klebsiella pneumoniae [30])?
Its zone of inhibition at 100 µg/mL is 14 mm.

And the zone of inhibition at 50 µg/mL (Staphylococcus aureus [31])?
Its zone of inhibition at 50 µg/mL is 6 mm.

And the zone of inhibition at 50 µg/mL (Aspergillus flavus [32])?
Its zone of inhibition at 50 µg/mL is 4 mm.

And the zone of inhibition at 100 µg/mL (Aspergillus flavus [33])?
The zone of inhibition at 100 µg/mL was 9 mm.

And the MIC (Aspergillus flavus [34])?
Its MIC is 40 µg/mL (≈ 140 µM).

And the MIC (Aspergillus niger [35])?
Its MIC is 40 µg/mL (≈ 140 µM).

And the MIC (Fusarium oxysporum [36])?
Its MIC is 35 µg/mL (≈ 123 µM).

What about the MIC (Rhizoctonia solani [37]) of the same molecule?
Its MIC is 35 µg/mL (≈ 123 µM).

And the MIC (Bacillus subtilis [38])?
The MIC was 30 µg/mL (≈ 105 µM).

And the MIC (Staphylococcus aureus [39])?
Its MIC is 25 µg/mL (≈ 87.6 µM).

What about the MIC (Escherichia coli [40]) of the same molecule?
The MIC was 15 µg/mL (≈ 52.6 µM).

What about the MIC (Klebsiella pneumoniae [41]) of the same molecule?
Its MIC is 15 µg/mL (≈ 52.6 µM).

What about the zone of inhibition at 500 µg/mL (Aspergillus flavus [42]) of the same molecule?
Its zone of inhibition at 500 µg/mL is 23 mm.

What about the zone of inhibition at 300 µg/mL (Aspergillus flavus [43]) of the same molecule?
Its zone of inhibition at 300 µg/mL is 15 mm.

What about the zone of inhibition at 200 µg/mL (Aspergillus flavus [44]) of the same molecule?
The zone of inhibition at 200 µg/mL was 12 mm.

And the zone of inhibition at 500 µg/mL (Aspergillus niger [45])?
Its zone of inhibition at 500 µg/mL is 25 mm.

And the zone of inhibition at 300 µg/mL (Aspergillus niger [46])?
Its zone of inhibition at 300 µg/mL is 18 mm.

What about the zone of inhibition at 200 µg/mL (Aspergillus niger [47]) of the same molecule?
Its zone of inhibition at 200 µg/mL is 14 mm.

And the zone of inhibition at 100 µg/mL (Aspergillus niger [48])?
The zone of inhibition at 100 µg/mL was 10 mm.
